Our source for the pKb values is ChEMBL document CHEMBL1138694, “Discovery of small molecule antagonists of TRPV1” (2004).

For assay [1], the target named is Transient receptor potential cation channel subfamily V member 1 (Homo sapiens) (UniProt Q8NER1). The assay can be described thus: Antagonistic activity against human transient receptor potential vanilloid type 1 in FLIPR assay. It is filed as functional.
Assay [2] addresses Transient receptor potential cation channel subfamily V member 1 (Cavia porcellus) (UniProt Q6R5A3). The assay can be described thus: Antagonistic activity against guinea pig Transient receptor potential vanilloid type 1 expressed in HEK293 cells compared to capsaicin.
Assay [3] is described as follows: Antagonistic activity against rat transient receptor potential vanilloid type 1 expressed in HEK293 cells compared to capsaicin. The class given is functional.
Assay [4] can be described thus: Inhibition of capsaicin- response in rat dorsal root ganglion. The class given is functional.

Transient receptor potential cation channel subfamily V member 1 (Homo sapiens), sequence (Q8NER1 whole entry): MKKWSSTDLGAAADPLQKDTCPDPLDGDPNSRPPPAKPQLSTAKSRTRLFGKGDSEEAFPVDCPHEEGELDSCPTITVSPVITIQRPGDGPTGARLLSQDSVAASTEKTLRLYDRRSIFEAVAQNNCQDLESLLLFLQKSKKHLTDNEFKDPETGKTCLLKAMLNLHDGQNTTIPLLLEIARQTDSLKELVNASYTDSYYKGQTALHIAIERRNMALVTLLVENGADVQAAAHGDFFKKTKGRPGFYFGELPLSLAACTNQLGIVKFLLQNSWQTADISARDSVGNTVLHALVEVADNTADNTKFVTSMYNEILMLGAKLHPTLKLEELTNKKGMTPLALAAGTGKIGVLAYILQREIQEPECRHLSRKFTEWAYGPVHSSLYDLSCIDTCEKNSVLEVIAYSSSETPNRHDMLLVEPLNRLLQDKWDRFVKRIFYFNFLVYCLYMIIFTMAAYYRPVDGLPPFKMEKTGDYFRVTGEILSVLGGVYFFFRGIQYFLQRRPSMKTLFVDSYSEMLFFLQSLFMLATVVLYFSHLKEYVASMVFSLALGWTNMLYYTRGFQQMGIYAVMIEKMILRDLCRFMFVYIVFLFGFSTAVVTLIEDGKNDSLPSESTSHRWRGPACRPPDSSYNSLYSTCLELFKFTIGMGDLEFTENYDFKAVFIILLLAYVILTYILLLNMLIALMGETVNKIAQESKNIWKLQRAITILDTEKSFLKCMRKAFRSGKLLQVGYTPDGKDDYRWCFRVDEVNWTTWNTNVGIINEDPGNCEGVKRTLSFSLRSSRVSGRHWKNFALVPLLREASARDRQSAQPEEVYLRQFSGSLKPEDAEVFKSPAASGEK
Transient receptor potential cation channel subfamily V member 1 (Cavia porcellus), sequence (Q6R5A3 whole entry, looked up): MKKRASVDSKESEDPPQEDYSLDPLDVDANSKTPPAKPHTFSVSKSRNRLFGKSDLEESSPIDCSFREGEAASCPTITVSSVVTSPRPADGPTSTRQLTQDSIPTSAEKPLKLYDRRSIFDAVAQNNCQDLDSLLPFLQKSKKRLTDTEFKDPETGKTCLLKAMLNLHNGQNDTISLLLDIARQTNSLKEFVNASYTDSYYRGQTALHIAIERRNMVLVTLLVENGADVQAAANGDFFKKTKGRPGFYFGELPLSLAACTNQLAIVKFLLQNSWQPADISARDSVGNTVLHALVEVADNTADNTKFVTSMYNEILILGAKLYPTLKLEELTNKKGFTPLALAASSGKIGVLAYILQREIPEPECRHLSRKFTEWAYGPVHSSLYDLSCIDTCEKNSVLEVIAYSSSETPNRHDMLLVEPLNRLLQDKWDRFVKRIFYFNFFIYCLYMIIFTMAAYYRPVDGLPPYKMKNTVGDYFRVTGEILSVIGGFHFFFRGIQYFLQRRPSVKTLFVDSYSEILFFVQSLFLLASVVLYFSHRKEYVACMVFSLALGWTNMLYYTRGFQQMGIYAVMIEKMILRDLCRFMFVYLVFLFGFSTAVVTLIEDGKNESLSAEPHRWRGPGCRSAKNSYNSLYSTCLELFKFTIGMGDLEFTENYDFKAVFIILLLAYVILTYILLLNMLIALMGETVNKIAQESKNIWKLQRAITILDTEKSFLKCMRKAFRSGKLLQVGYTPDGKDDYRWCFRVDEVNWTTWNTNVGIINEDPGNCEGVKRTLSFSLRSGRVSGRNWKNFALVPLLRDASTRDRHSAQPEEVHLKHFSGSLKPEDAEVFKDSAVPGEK

In general, pKb refers to the Kb on a negative log10 scale, so that one unit is a factor of ten. In assay [1], `COc1cccc(NC(=O)/C=C/c2ccc(Cl)cc2)c1` showed a pKb of 7.7.
Take `CCN(CCNC(=O)Nc1ccccc1Br)c1cccc(C)c1`: the pKb in assay [1] was 7.8; in assay [2], 7.5; in assay [3] it was 7.7; in assay [4], 7.4.
`Oc1cc2c(cc1O)CN(C(=S)NCCc1ccc(Cl)cc1)CCC2`: in assay [1], the pKb turned out to be 7.5.
